Patent US11807624B2, “Substituted pyrimidinones as agonists of the APJ receptor” (AMGEN INC., priority 2018, dated 2023)
pEC50: −log10 of the molar value.

Biological target: human APJ-AT1R (angiotensin Type 1) double stable CHO cell line (Homo sapiens (Human), UniProt P35414)
Assay: IP1 accumulation (TR-FRET), APJ-AT1R double stable CHO cell line
Type: cell-based
Conditions: in the presence of AngII and APJ small molecule agonists
Protocol: Single and double stable recombinant cell lines were generated for human APJ and the AT1R receptor in CHO K1 cells tagged either with FLAG or hemagglutinin (HA) tag. Briefly, the CHO-K1 APJ/AT1R cells were seeded in culture medium of DMEM-F12 and 10% FBS at a density of 15 k/well in a 96 well plate overnight. The next day, the culture medium was replaced with medium containing no serum for 4 hours. The compound AngII at a range of concentrations (1 pM-10 μM) with or without different concentrations of APJ agonists were diluted in stimulation buffer and added to the cell plate. The plate was sealed and incubated for 1 hour. This was followed by addition of IP-d2 conjugate followed by europium cryptate antibody conjugate into the wells. The plate was sealed, followed with incubation for 2 hours at RT. Time-resolved fluorescence resonance energy (TR-FRET) at 620 nm and 665 nm was measured after 2 horns with an Envision reader. The signal ratios and delta F were calculated and the amount of IP1 produced was inversely proportional to the TR-FRET ratio, 665/620 nm.

Chain of human APJ-AT1R (angiotensin Type 1) double stable CHO cell line (P35414 whole entry): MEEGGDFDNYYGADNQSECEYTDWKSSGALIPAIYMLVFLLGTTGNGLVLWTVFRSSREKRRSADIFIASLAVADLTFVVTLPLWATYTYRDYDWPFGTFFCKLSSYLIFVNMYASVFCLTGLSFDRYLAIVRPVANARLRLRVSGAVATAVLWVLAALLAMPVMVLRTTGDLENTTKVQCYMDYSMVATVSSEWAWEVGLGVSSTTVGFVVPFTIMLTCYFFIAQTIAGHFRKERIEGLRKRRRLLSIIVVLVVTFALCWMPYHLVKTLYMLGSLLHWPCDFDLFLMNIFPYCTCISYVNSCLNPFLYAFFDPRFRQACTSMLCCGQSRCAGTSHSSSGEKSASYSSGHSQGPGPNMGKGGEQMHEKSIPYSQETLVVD

| Compound | effect of AT1R blockade on APJ agonist-induced cooperativity |
| --- | --- |
| CCCCc1nc(Cl)c(CO)n1Cc1ccc(-c2ccccc2-c2nn[nH]n2)cc1 [losartan] | relieved this cooperativity and resulted in synergistic effects of enhancing the efficacy of the APJ receptor |

Biological target: human APJ receptor (Homo sapiens (Human), UniProt P35414)
Assay: [35S]GTPγS binding assay (hAPJ SPA)
Type: biochemical
Conditions: membranes from CHO cells stably expressing human APJ receptor, read-out: Activity hAPJ SPA EC50 IP
Protocol: [^35S]GTPγS Binding The human APJ receptor was cloned by polymerase chain reaction and the gene encoding the receptor was subcloned in pFLAG-CMV™-3 expression vector (Sigma, Saint Louis, Mo. USA) in-house at Amgen. A GTPγS binding assay was performed on membranes prepared from CHO cells stably expressing human APJ receptor. The optimum experimental conditions for the concentrations of GDP, MgCl2, and NaCl in the assay buffer were initially determined. […] Incubation was at RT for 90 min and the microplate was read using a ViewLux™ ultra HTS Microplate Imager (PerkinElmer, Inc.). All the results presented are means of several independent experiments and analyzed by non-linear regression methods using the commercially available program Prism (GraphPad, San Diego, Calif.) providing the EC50 values detailed in Table 3.

Chain of human APJ receptor (P35414 whole entry): as above

| Compound | pEC50 |
| --- | --- |
| CCCCc1nc(O)c(NS(=O)(=O)C(C)C)c(=O)n1-c1c(OC)cccc1OC [Example 4.1, N-(2-butyl-1-(2,6-dimethoxyphenyl)-4-hydroxy-6-oxo-1,6-dihydropyrimidin-5-yl)propane-2-sulfonamide] | 6.13 |
| CCCCc1nc(O)c(NS(=O)(=O)CCc2ccccc2)c(=O)n1-c1c(OC)cccc1OC [Example 4.4b, N-(2-butyl-1-(2,6-dimethoxyphenyl)-4-hydroxy-6-oxo-1,6-dihydropyrimidin-5-yl)-2-phenylethane-1-sulfonamide] | 6.71 |
| CCCCc1nc(O)c(NS(=O)(=O)C[C@H](C)c2ncc(F)cn2)c(=O)n1-c1c(OC)cccc1OC (single isomer, unassigned) [Example 4.5, (R)-N-(2-butyl-1-(2,6-dimethoxyphenyl)-4-hydroxy-6-oxo-1,6-dihydropyrimidin-5-yl)-2-(5-fluoropyrimidin-2-yl)propane-1-sulfonamide or (S)-N-(2-butyl-1-(2,6-dimethoxyphenyl)-4-hydroxy-6-oxo-1,6-dihydropyrimidin-5-yl)-2-(5-fluoropyrimidin-2-yl)propane-1-sulfonamide] | 7.96 |
| CCCCc1nc(O)c(NS(=O)(=O)C2CCCCC2)c(=O)n1-c1c(OC)cccc1OC [Example 4.9, N-(2-butyl-1-(2,6-dimethoxyphenyl)-4-hydroxy-6-oxo-1,6-dihydro-5-pyrimidinyl)cyclohexanesulfonamide] | 6.71 |
| CCCCc1nc(O)c(NS(=O)(=O)[C@@H](C)[C@H](C)c2ncc(F)cn2)c(=O)n1-c1c(OC)cccc1OC [Example 4.2, (2S,3R)-N-(2-butyl-1-(2,6-dimethoxyphenyl)-4-hydroxy-6-oxo-1,6-dihydropyrimidin-5-yl)-3-(5-fluoropyrimidin-2-yl)butane-2-sulfonamide] | 7.57 |
| CCCCc1nc(O)c(NS(=O)(=O)Cc2ccccc2)c(=O)n1-c1c(OC)cccc1OC [Example 4.3, N-(2-butyl-1-(2,6-dimethoxyphenyl)-4-hydroxy-6-oxo-1,6-dihydropyrimidin-5-yl)-1-phenylmethanesulfonamidesulfonamide] | 6.71 |
| COc1cccc(OC)c1-n1c(-c2ccccc2)nc(O)c(NS(=O)(=O)CCc2ncc(F)cn2)c1=O [Example 4.24, N-[1-(2,6-dimethoxyphenyl)-4-hydroxy-6-oxo-2-phenyl-pyrimidin-5-yl]-2-(5-fluoropyrimidin-2-yl)ethanesulfonamide] | 8.82 |
| CCCCc1nc(O)c(NS(=O)(=O)[C@H]2CCCN(c3ncc(F)cn3)C2)c(=O)n1-c1c(OC)cccc1OC (single isomer, unassigned) [Example 4.7, (S)-N-(2-butyl-1-(2,6-dimethoxyphenyl)-4-hydroxy-6-oxo-1,6-dihydropyrimidin-5-yl)-1-(5-fluoropyrimidin-2-yl)piperidine-3-sulfonamide or (R)-N-(2-butyl-1-(2,6-dimethoxyphenyl)-4-hydroxy-6-oxo-1,6-dihydropyrimidin-5-yl)-1-(5-fluoropyrimidin-2-yl)piperidine-3-sulfonamide] | 7.11 |
| CCCCc1nc(O)c(NS(=O)(=O)[C@@H](C)[C@H](OC)c2ncc(C)cn2)c(=O)n1-c1c(OC)cccc1OC [Example 4.8, (1R,2S)-N-(2-butyl-1-(2,6-dimethoxyphenyl)-4-hydroxy-6-oxo-1,6-dihydropyrimidin-5-yl)-1-methoxy-1-(5-methylpyrimidin-2-yl)propane-2-sulfonamide] | 7.07 |
| CCCCc1nc(O)c(NS(=O)(=O)CCc2ncc(F)cn2)c(=O)n1-c1c(OC)cccc1OC [Example 4.0, N-(2-Butyl-1-(2,6-dimethoxyphenyl)-4-hydroxy-6-oxo-1,6-dihydropyrimidin-5-yl)-2-(5-fluoropyrimidin-2-yl)ethane-1-sulfonamide] | 7.52 |
| CCCCc1nc(O)c(NS(=O)(=O)C[C@@H](C)c2ncc(F)cn2)c(=O)n1-c1c(OC)cccc1OC (single isomer, unassigned) [Example 4.6, (S)-N-(2-butyl-1-(2,6-dimethoxyphenyl)-4-hydroxy-6-oxo-1,6-dihydropyrimidin-5-yl)-2-(5-fluoropyrimidin-2-yl)propane-1-sulfonamide or (R)-N-(2-butyl-1-(2,6-dimethoxyphenyl)-4-hydroxy-6-oxo-1,6-dihydropyrimidin-5-yl)-2-(5-fluoropyrimidin-2-yl)propane-1-sulfonamide] | 7.70 |
| CCCCc1nc(O)c(NS(=O)(=O)c2ccccc2)c(=O)n1-c1c(OC)cccc1OC [Example 4.4a, N-(2-butyl-1-(2,6-dimethoxyphenyl)-4-hydroxy-6-oxo-1,6-dihydropyrimidin-5-yl)benzenesulfonamide] | 6.61 |
| COc1cccc(OC)c1-n1c(C2CCCC2)nc(O)c(NS(=O)(=O)CCc2ncc(F)cn2)c1=O [Example 4.17, N-[2-cyclopentyl-1-(2,6-dimethoxyphenyl)-4-hydroxy-6-oxo-pyrimidin-5-yl]-2-(5-fluoropyrimidin-2-yl)ethanesulfonamide] | 8.55 |

Tested on: heart failure rats
Assay: Cardiac function in heart failure rats in vivo
Set-up: species or system rat
Conditions: captopril alone, acute settings
Text: The interaction between […] (ACE2) and Apelin biology is complicated. To investigate the interaction between the Apelin-APJ and ACE signalling pathways, we examined the improvement in cardiac function with APJ small molecule agonists in the presence of ACE inhibitor captopril in heart failure rats in vivo. […] However, in the presence of an APJ agonist, there was a shift in potency to the left with marked improvement in contractility and ejection fraction without changes in heart rate. These findings provide a new reference for the understanding of the regulation of ACE2 for the renin angiotensin aldosterone system (RAAS), independent of AT1R signaling and offer new potential drug targets for the treatment of diseases such as hypertension and heart failure. This work clearly establishes that combination of an agonist of the APJ receptor with an ARB such as losartan and/or with an ACE inhibitor such as captopril which may play an important role in providing greater efficacy in treating heart failure patients, for example in improving contractility and ejection fraction without changing the heart rate.

| Compound | improvement in contractility or ejection fraction |
| --- | --- |
| C[C@H](CS)C(=O)N1CCC[C@H]1C(=O)O [Captopril, captopril] | does not show a marked improvement in contractility or ejection fraction acutely |

Tested on: isolated cardiomyocyctes
Assay: not given
Conditions: isolated cardiomyocytes, exogenous apelin; cited from earlier work

| Compound | increase in sarcomere shortening |
| --- | --- |
| apelin | up to 140% |

Biological target: human AT1R receptor expressed in the CHO cell line (Homo sapiens (Human), UniProt P30556)
Assay: not given
Conditions: AT1R expressed alone, no APJ expression

Chain of human AT1R receptor expressed in the CHO cell line (P30556 whole entry): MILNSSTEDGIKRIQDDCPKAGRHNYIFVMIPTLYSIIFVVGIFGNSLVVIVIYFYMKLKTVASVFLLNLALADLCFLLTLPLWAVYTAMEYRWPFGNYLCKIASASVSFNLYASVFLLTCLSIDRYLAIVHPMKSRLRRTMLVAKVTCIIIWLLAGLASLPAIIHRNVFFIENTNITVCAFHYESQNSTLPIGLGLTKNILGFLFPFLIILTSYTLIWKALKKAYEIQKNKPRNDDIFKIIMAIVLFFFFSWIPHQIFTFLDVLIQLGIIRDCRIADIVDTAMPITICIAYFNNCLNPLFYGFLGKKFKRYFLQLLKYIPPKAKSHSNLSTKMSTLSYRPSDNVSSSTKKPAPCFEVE

| Compound | cooperativity on AngII-induced IP1 response |
| --- | --- |
| pyr apelin-13 | no positive cooperativity observed |
